Earlier results, collected in patent US11285184B2, “Cannabidiol alkaline composition” (CHIROSYN DISCOVERY TECHNOLOGIES INC., priority 2018, dated 2022).

Conditions: CBD dissolved in sulfuric acid/acetic acid

C=C(C)[C@@H]1CCC(C)=C[C@H]1c1c(O)cc(CCCCC)cc1O [CBD, 2-[1R-3-methyl-6R-(1-methylethenyl)-2-cyclohexen-1-yl]-5-pentyl-1,3-benzenediol]
Δ-8-THC formed from CBD: 2%
Δ-9-THC formed from CBD: 52%
